# Test results published in patent US7285687B2 (priority 2002, dated 2007).
# Where two headings read alike, the source gives them in different places.
# Tests used:
# [1] = target: T1, CB2 receptor (Homo sapiens, UniProt P34972); test: CB2 binding procedure, displacement of [3H]CP-55,940 from membranes of transfected CHO cells; details: for CB1/CB2: ratio of CB1 Ki to CB2 Ki
# T1 construct: expressed in transfected cells
# Protocol: Membranes for CB2 binding were obtained from CHO cells. The transfected cell line was maintained in Dublecco's Modified Eagle Medium (Gibco BRL, Grand Island, N.Y.) with 10% fetal clone II (HyClone Laboratories, Inc., Logan, Utah) plus 0.3 to 0.5 mg/ml G418 (to maintain selective pressure) under 5% CO2 at 37% C. Cells were harvested with 1 mM EDTA in phosphate-buffered saline and were centrifuged at 1000×g for 5 min at 4% C. The supernatant was saved and the P1 pellet was resuspended in centrifugation buffer. Homogenization and centrifugation were repeated twice and the combined supernatant fractions were centrifuged at 40,000×g for 30 min at 4% C. The P2 pellet was resuspended in centrifugation buffer 2 (Tris HCl, 50 mM; EDTA, 1 mM; and MgCl2, 3 mM, pH 7.4) to a protein concentration of approximately 2 mg/ml. Protein concentrations were determined by the method of Bradford (1976) using Bio-Rad Protein Assay (Bio-Rad, Richmond, Calif.) and BSA standards (fatty acid free, Sigma Chemical Co., St. Louis, Mo.). The membrane preparation was divided into amounts convenient for binding assays and frozen rapidly in dry ice and stored at −80% C.
# Binding was initiated by the addition of 50•g of quickly thawed P2 membranes to test tubes containing [^3H]CP-55,940 (final reaction concentration 0.5 nM), an appropriate concentration of unlabeled CP-55,940 or test drug, and sufficient quantity of assay buffer (50 mM Tris-HCl, 1 mM EDTA, 3 mM MgCl2, 5 mg/ml bovine serum albumin, pH 7.4) to bring the total incubation volume to 0.5 ml. Concentration of [^3H]CP-55,940 in saturation studies ranged from 50 to 10,000 pM. […] CP-55,940 and all cannabinoid analogs were-prepared by suspension in assay buffer from a 1 mg/ml ethanolic stock without evaporation of the ethanol (final concentration of no more than 0.4%). In competition studies, analog concentrations ranged from 0.1 nM to 10•M. After incubation at […] for 1 hr, binding was terminated by the addition of 2 ml of ice-cold wash buffer (50 mM Tris-HCl and 1 mg/ml BSA) and vacuum filtration through pre-treated filters in a 12-well sampling manifold (Millipore, Bedford, Mass.). Reaction vessels were washed once with 2 ml of ice-cold wash buffer. Filters were placed into 7-ml plastic scintillation vials (RPI Corp., Mount Prospect, Ill.) with 4 ml of Budget-Solve (RPI Corp.). After shaking for 30 min, the radioactivity present was determined by liquid scintillation spectrometry. Three reaction vessels were used for each drug concentration in each assay. The results represent the combined data of three independent experiments. All assays were performed in siliconized test tubes, which were prepared by air drying (12 hr) inverted borosilicate tubes after two rinses with a 0.1% solution of AquaSil (Pierce, Rockford, Ill.). The GF/C glass-fiber filters (2.4 cm, Baxter, McGaw Park, Ill.) were pre-treated in a 0.1% solution of pH 7.4 polyethylenimine (Sigma Chemical Co.) for at least 6 hr.
# (§1) In addition, multiple linear regression was used to calculate the overall degree of relationship between CB1 binding affinity and potency in the mouse measures for all active cannabinoids. […] Ki values for CB1 and CB2 binding were obtained from Scatchard displacement analysis as determined via EBDA program of the KELL software package (Biosoft, Milltown, N.J.).
# [2] = tested on: male ICR mice; test: Tail-flick antinociception (TF, % MPE) in mice, i.v.; format: in vivo, mouse; details: for inhibition in vivo at 30 mg/kg / ED50: Mus musculus, iv; for inhibition in vivo at 30 mg/kg: Table 6, read-out: T.F. % effect at dose
# Protocol: (§2) Male ICR mice (25-32 g), obtained from Harlan (Dublin, Va.), were housed in groups of five. All animals were kept in a temperature-controlled (20-22° C.) environment with a 12-hour light-dark cycle (lights on at 7 a.m.). Separate mice were used for testing each drug dose in the in vivo behavioral procedures. Brain tissue for binding studies was obtained from male Sprague-Dawley rats (150-200 g) purchased from Harlan Laboratories (Dublin, Va.).
# (§3) Measurement of spontaneous activity in mice occurred in standard activity chambers interfaced with a Digiscan Animal Activity Monitor (Omnitech Electronics, Inc., Columbus, Ohio). A standard tail-flick apparatus and a digital thermometer (Fisher Scientific, Pittsburgh, Pa.) were used to measure antinociception and rectal temperature, respectively.
# (§4) Resorcinols were synthesized in our labs (Organix, Inc., Woburn, Mass.) according to the procedure specified below and were suspended in a vehicle of absolute ethanol, Emulphor-620 (Rhone-Poulenc, Inc., Princeton, N.J.), and saline in a ratio of 1:1:18. Drugs were administered to the mice intravenously (i.v.) in the tail vein at a volume of 0.1 ml/10 g.
# (§5) Prior to testing in the behavioral procedures, mice were acclimated to the experimental setting (ambient temperature 22-24° C.) overnight. Pre-injection control values were determined for rectal temperature and tail-flick latency (in sec). Five min after i.v. injection with drug or vehicle, mice were placed in individual activity chambers and spontaneous activity was measured for 10 min. […] Tail-flick latency was measured at 20 min post-injection. Maximum latency of 10 sec was used. Antinociception was calculated as percent of maximum possible effect {% MPE=[(test−control latency)/(10-control)]×100}. Control latencies typically ranged from 1.5 to 4.0 sec. At 30 min post-injection, rectal temperature was measured. This value was expressed as the difference between control temperature (before injection) and temperatures following drug administration (° C.). Different mice (n=5-6 per dose) were tested for each dose of each compound. Each mouse was tested in each of the 3 procedures.
# (§6) Based on data obtained from numerous previous studies with cannabinoids, maximal cannabinoid effects in each procedure were estimated as follows: 90% inhibition of spontaneous activity, 100% MPE in the tail flick procedure, and −6° C. change in rectal temperature. ED50's were defined as the dose at which half maximal effect occurred. For drugs that produced one or more cannabinoid effect, ED50's were calculated separately using least-squares linear regression on the linear part of the dose-effect curve for each measure in the mouse tetrad, plotted against log10 transformation of the dose. For the purposes of potency comparison, potencies were expressed as μmol/kg.
# [3] = tested on: male ICR mice; test: Change in rectal temperature (RT) in mice, i.v.; format: in vivo, mouse; details: for ED50: Mus musculus, iv
# Protocol: as §2, §3, §4, §5, §6
# [4] = target: T2, CB1 receptor (Rattus norvegicus, UniProt P20272); test: CB1 binding procedure, displacement of [3H]CP 55,940 from rat whole-brain P2 membranes
# T2 construct: whole brain was homogenized and centrifuged; from tissue; host or cells: whole brain of male Sprague-Dawley rats, P2 membrane fraction
# Protocol: as §2
# The methods used for tissue preparation and binding have been described previously (Compton et al., 1993) and are similar to those described by Devane et al. (1988). All assays, as described briefly below, were performed in triplicate, and the results represent the combined data from three to six individual experiments.
# Following decapitation and rapid removal of the brain, whole brain was homogenized and centrifuged. The resulting pellet was termed P1. The supernatant was saved and combined with the two subsequent supernatants obtained from washing of the P1 pellet. The combined supernatant fractions were centrifuged, resulting in the P2 pellet. After further incubation and centrifuging, this pellet was resuspended in assay buffer to a protein concentration of approximately 2 mg/ml. The membrane preparation was quickly frozen in a bath solution of dry ice and 2-methylbutane (Sigma Chemical Co., St. Louis, Mo.), then stored at −80° C. for no more than 2 weeks. Prior to performing a binding assay an aliquot of frozen membrane was rapidly thawed and protein values determined by the method of Bradford (1976).
# Binding was initiated by the addition of 150•g of P2 membrane to test tubes containing 1 nM of [^3H] CP 55,940 (79 Ci/mmol) and a sufficient quantity of buffer to bring the total incubation volume to 1 ml. […] Following incubation at 30° C. for 1 hr, binding was terminated by addition of ice cold buffer and vacuum filtration through pretreated filters in a 12-well sampling manifold (Millipore, Bedford, Mass.). After washing, filters were placed into plastic scintillation vials (Packard, Downer Grove, Ill.) and shaken. The quantity of radioactivity present was determined by liquid scintillation spectrometry.
# as §1
# [5] = tested on: male ICR mice; test: Suppression of spontaneous activity (SA) in mice, i.v.; format: in vivo, mouse; details: for ED50: Mus musculus, iv
# Protocol: as §2, §3, §4, §5, §6
# [6] = tested on: male ICR mice; test: Lethality noted in the mouse behavioral procedures, i.v.; format: in vivo; details: @ 30 mg/kg, Table 6
# Protocol: as §2
# Resorcinols were synthesized in our labs (Organix, Inc., Woburn, Mass.) according to the procedure specified below and were suspended in a vehicle of absolute ethanol, Emulphor-620 (Rhone-Poulenc, Inc., Princeton, N.J.), and saline in a ratio of 1:1:18. […]
# Prior to testing in the behavioral procedures, mice were acclimated to the experimental setting (ambient temperature 22-24° C.) overnight. Pre-injection control values were determined for rectal temperature and tail-flick latency (in sec). Five min after i.v. injection with drug or vehicle, mice were placed in individual activity chambers and spontaneous activity was measured for 10 min. […] Tail-flick latency was measured at 20 min post-injection. […] Antinociception was calculated as percent of maximum possible effect {% MPE=[(test−control latency)/(10-control)]×100}. […] At 30 min post-injection, rectal temperature was measured. […]
# [7] = 95% confidence limits in parentheses, read-out: ED50 RT (rectal temperature)
# [8] = mean ± SEM, [3H]CP-55,940, transfected CHO cell membranes, read-out: Ki(nM) CB2
# [9] = 95% confidence limits in parentheses, read-out: ED50 TF (antinociception in tail flick assay)
# [10] = 95% confidence limits in parentheses, read-out: ED50 SA (suppression of spontaneous activity)
# [11] = mean ± SEM, [3H]CP 55,940, rat brain membranes, read-out: Ki(nM) CB1
# T1 sequence (P34972 whole entry): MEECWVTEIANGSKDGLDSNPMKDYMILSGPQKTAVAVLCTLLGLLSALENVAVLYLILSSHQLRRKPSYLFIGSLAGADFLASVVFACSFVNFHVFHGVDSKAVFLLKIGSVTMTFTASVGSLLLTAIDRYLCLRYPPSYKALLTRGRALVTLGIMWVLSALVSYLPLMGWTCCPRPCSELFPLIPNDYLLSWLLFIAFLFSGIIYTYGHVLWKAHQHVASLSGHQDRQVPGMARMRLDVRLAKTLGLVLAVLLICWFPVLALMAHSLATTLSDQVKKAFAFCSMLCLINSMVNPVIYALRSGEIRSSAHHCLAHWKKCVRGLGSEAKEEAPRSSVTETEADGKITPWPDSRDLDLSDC
# T2 sequence (P20272 whole entry): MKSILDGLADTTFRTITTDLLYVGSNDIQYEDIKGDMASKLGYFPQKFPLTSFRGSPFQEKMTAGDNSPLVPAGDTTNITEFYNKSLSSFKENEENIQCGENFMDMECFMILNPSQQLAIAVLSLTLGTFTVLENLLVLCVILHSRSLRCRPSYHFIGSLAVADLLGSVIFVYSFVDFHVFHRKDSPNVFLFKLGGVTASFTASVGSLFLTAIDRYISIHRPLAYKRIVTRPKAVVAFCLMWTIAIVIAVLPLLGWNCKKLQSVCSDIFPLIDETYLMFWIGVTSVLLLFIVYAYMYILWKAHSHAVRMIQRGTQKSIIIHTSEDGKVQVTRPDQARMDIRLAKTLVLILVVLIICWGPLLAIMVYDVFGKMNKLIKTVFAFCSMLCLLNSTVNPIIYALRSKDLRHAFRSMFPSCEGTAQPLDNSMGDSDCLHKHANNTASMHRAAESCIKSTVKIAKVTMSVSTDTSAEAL
compound,measurement,setting,value
"C=C(C)[C@@H]1CCC(C)=CC1c1c(C)cc(O)cc1O (single isomer, unassigned; (-)) [O-1602]",Ki,"[1]; Table 6, read-out: CB2 KI",> 10000 nM
same,inhibition in vivo at 30 mg/kg,[2]; @ 30 mg/kg,0%
same,R.T. effect at dose,"[3]; @ 30 mg/kg, Table 6",0.3 @ 30 °C
same,Ki,"[4]; Table 6, read-out: CB1 KI",> 10000 nM
"C=C(C)[C@@H]1CCC(C)=CC1c1c(O)cc(C)cc1O (single isomer, unassigned; (-)) [O-1821, (-)-2-(3-3,4-trans-p-menthadien-(1,8)-yl)-orcinol]",inhibition in vivo at 30 mg/kg,[2]; @ 30 mg/kg,3%
same,S.A. % effect at dose,"[5]; @ 30 mg/kg, Table 6",0 @ 30%
same,Ki,"[4]; Table 6, read-out: CB1 KI",> 10000 nM
"CCCCCCC(C)(C)c1cc(OC)c(C2(O)CCCC(C)C2)c(OC)c1 (single isomer, unassigned; isomer 1) [O-1966A, 1-[4-(1,1-Dimethyl-heptyl)-2,6-dimethoxy-phenyl]-3-methyl-cyclohexanol isomer 1]",CB1/CB2,[1],220
same,R.T. effect at dose,"[3]; @ 30 mg/kg, Table 6, 30 mg/kg",0.5 @ 30 °C
"CCCCCCC(C)(C)c1cc(OC)c(C2(O)CCCC(C)C2)c(OC)c1 (single isomer, unassigned; isomer 2) [O-1967B, 1-[4-(1,1-Dimethyl-heptyl)-2,6-dimethoxy-phenyl]-3-methyl-cyclohexanol isomer 2]",CB1/CB2,[1],15
same,T.F. % effect at dose,"[2]; @ 30 mg/kg, Table 6, 30 mg/kg",8.2% @30
same,R.T. effect at dose,"[3]; @ 30 mg/kg, Table 6, 30 mg/kg",0 @ 30 °C
"CCCCCCC(C)(C)c1ccc(-c2cc(C)ccc2C(C)C)c(O)c1 [O-1376, 3-1′,1′-Dimethylhepty-6-(2-isopropyl-5-methylphenyl)phenol]",Ki,"[1]; Table 6, read-out: CB2 KI",2.63 ± 0.36 nM
same,CB1/CB2,[1],11
same,ED50,[3]; [7],23 µmol/kg
"CCCCCCC(C)(C)c1cc(O)c(C2CCCCCC2)c(O)c1 [O-1656, 2-Cycloheptyl-5-(1′,1′-dimethyl-heptyl)-resorcinol]",Ki,"[1]; Table 6, read-out: CB2 KI",2.12 ± 0.25 nM
same,Ki,[1]; [8],2 ± 0.2 nM
same,CB1/CB2,[1],9
same,ED50,[2]; [9],1.2 µmol/kg
same,ED50,"[2]; Table 6, read-out: T.F. ED50",0.39 mg/kg
same,ED50,[5]; [10],1.5 µmol/kg
same,ED50,"[5]; Table 6, read-out: S.A. ED50",0.53 mg/kg
same,ED50,[3]; [7],0.6 µmol/kg
same,ED50,"[3]; Table 6, read-out: R.T. ED50",0.21 mg/kg
same,Ki,"[4]; Table 6, read-out: CB1 KI",17.8 ± 1.4 nM
same,Ki,[4]; [11],18 ± 1 nM
"CCCCCCC(C)(C)c1cc(O)c(C2CCSC2)c(O)c1 (stereo not shown) [O-1661, 2-(Tetrahydrothiophen-3-yl)-5-(1′,1′-dimethylheptyl)-resorcinol]",CB1/CB2,[1],5
same,ED50,"[5]; Table 6, read-out: S.A. ED50",7.65 mg/kg
"CCCCCCC(C)(C)c1cc(O)c(C2CCN(C)CC2)c(O)c1 [O-1662, 2-(1-Methylpiperidin-4-yl)-5-(1′,1′-dimethylheptyl)-resorcinol]",Lethality at dose,[6],Lethal
same,T.F. % effect at dose,"[2]; @ 10 mg/kg, Table 6",7 @ 10%
same,S.A. % effect at dose (stim),"[5]; stimulation, @ 10 mg/kg, Table 6",77% stim@ 10
same,R.T. effect at dose,"[3]; @ 10 mg/kg, Table 6",1 °C
CCCCCCC(C)(C)c1cc(O)c(C2CCCC(C)(C)C2)c(O)c1 (stereo not shown) [O-1871],Ki,"[1]; Table 6, read-out: CB2 KI",0.3 ± 0.01 nM
same,Ki,[1]; [8],0.3 ± 0.01 nM
same,CB1/CB2,[1],7
same,ED50,[2]; [9],2.3 µmol/kg
same,ED50,"[2]; Table 6, read-out: T.F. ED50",0.7 mg/kg
same,ED50,[5]; [10],< 1 µmol/kg
same,ED50,"[5]; Table 6, read-out: S.A. ED50",0.04 mg/kg
same,ED50,[3]; [7],1.3 µmol/kg
same,ED50,"[3]; Table 6, read-out: R.T. ED50",0.37 mg/kg
same,Ki,"[4]; Table 6, read-out: CB1 KI",2.3 ± 0.32 nM
same,Ki,[4]; [11],2 ± 0.3 nM
"CCCCCCc1ccc(O)c(C2CCCCC2)c1O [O-2010, 2-Cyclohexyl-4-hexyl resorcinol]",T.F. % effect at dose,"[2]; @ 30 mg/kg, Table 6",9.0%@ 30
"COc1cc(C)cc(OC)c1C1CCCCC1 [O-2299, 2-Cyclohexyl-1,3-dimethoxy-5-methylbenzene]",Ki,"[1]; Table 6, read-out: CB2 KI",> 10000 nM
same,Ki,"[4]; Table 6, read-out: CB1 KI",> 10000 nM
